# How the values were obtained:
# Beta-secretase 1 [1] = target: T1, Beta-secretase 1 (Homo sapiens, UniProt P56817); experiment: Inhibition of BACE1 in human HEK293 cells overexpressing APP with Swedish mutation assessed as inhibition of amyloid beta 40 production; type: cell-based; conditions: read-out: IC50
# Beta-secretase 1 [2] = target: T1, Beta-secretase 1; experiment: Binding affinity to BACE assessed as displacement of [3H]BMS-599240; conditions: read-out: IC50
# T1 sequence (P56817 whole entry): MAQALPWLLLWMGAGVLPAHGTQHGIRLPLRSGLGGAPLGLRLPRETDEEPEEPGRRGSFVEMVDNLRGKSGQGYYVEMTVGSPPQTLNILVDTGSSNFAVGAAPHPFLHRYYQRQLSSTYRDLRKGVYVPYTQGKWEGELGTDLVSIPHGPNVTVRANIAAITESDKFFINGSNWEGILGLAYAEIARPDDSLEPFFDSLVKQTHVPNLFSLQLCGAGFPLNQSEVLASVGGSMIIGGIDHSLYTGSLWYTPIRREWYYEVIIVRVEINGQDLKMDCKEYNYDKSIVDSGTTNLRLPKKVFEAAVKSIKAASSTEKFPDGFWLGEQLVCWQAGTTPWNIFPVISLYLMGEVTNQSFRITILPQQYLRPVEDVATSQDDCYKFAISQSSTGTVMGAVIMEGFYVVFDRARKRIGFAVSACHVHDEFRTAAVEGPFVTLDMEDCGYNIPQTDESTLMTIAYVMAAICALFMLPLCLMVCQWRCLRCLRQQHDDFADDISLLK
SMILES,IC50 (Beta-secretase 1 [1]) [µM],IC50 (Beta-secretase 1 [2]) [µM]
CCCN(CCC)C(=O)c1cc(Sc2ccc(OC)cc2)cc(C(=O)N[C@@H](Cc2cc(F)cc(F)c2)[C@H](O)CNCc2cccc(OC)c2)c1,0.03,0.027
CCCN(CCC)C(=O)c1cc(C(=O)N[C@@H](Cc2cc(F)cc(F)c2)[C@H](O)CNCc2cccc(OC)c2)cc(S(=O)(=O)c2ccccc2)c1,0.148,0.011
CCCN(CCC)C(=O)c1cc(C(=O)N[C@@H](Cc2cc(F)cc(F)c2)[C@H](O)CNCc2cccc(OC)c2)cc(S(=O)(=O)c2ccc(OC)cc2)c1,0.392,0.012

# From ChEMBL document CHEMBL1151886, “Synthesis and SAR of hydroxyethylamine based phenylcarboxyamides as inhibitors of BACE” (Bioorg Med Chem Lett, 2009)
